Reference: patent publication US20070237885A1, “PROCESS FOR THE ISOLATION OF LIMONOID GLUCOSIDES FROM CITRUS” (THE TEXAS A & M UNIVERSITY SYSTEM, priority 2006, published 2007)

What was measured:
[1] = test system: DMBA-induced buccal pouch tumours; details: hamsters; cited from earlier work
[2] = test system: MDA-MB-435 oestrogen receptor-negative human breast cancer cells; details: MDA-MB-435 cells; [3H] thymidine incorporation; cited from earlier work
[3] = test system: 7,12-dimethylbenz[a]anthracene (DMBA)-induced buccal pouch epidermoid carcinomas; details: cited from earlier work; for incidence of DMBA-induced buccal pouch epidermoid carcinomas: female Syrian hamsters
[4] = test system: azoxymethane (AOM)-induced aberrant crypt foci (ACF); details: dietary intake; initiation and post-initiation feeding experiments; male F344 rats; cited from earlier work
[5] = test system: benzo[a]pyrene-induced forestomach neoplasia; details: mice; cited from earlier work
cancer cells = assay: Inhibition of cancer cells in cell culture models; format: cell-based
Source text: (§1) Limon glucoside is a triterpene derivative, in which aglycone part is linked to a glucose moiety, and it is water-soluble. Citrus plants containing the above-named limonoid glucoside derivatives belong to the Rutaceae family, and include, for example, Citrus paradisi and Citrus aurantium. The fresh fruits of Citrus paradisi (Rio Red grapefruit) and Citrus aurantium (sour orange) are currently produced in large amounts as acidulants for preparing juice and pickles in various parts of the World, and thus are readily available sources for extraction of limonoid glucosides. A method or process for isolating limonoid glucosides in gram quantities was devised.

Anti-oxidant properties = assay: Anti-oxidant properties
Source text: This offers potential advantages over the use of synthetic methods which require more complicated procedures to prepare pure limonoid compounds.

Water solubility = format: physicochemical
Source text: as §1

Molecule | decrease of average tumour burden [1] | IC50, inhibition of proliferation [2] [µg/mL] | inhibition of cancer cells (cancer cells) | anti-oxidant properties (Anti-oxidant properties) | other results
nomilin 17-β-D-glucopyranoside [NG] | only LG was effective |  |  |  | 
CC1(C)O[C@H]2CC(=O)OC[C@]23[C@H]2CC[C@@]4(C)[C@H](c5ccoc5)OC(=O)[C@H]5O[C@]54[C@]2(C)C(=O)C[C@@H]13 [limonin] |  | 12.5 |  |  | incidence of DMBA-induced buccal pouch epidermoid carcinomas [3]: reduced the incidence; comparative inhibition of DMBA-induced neoplasia ([3]; limonin compared with nomilin): more effective inhibitor; formation of aberrant crypt foci (ACF) [4]: significantly inhibited
CC(=O)O[C@H]1CC(=O)OC(C)(C)[C@@H]2CC(=O)[C@]3(C)[C@H](CC[C@@]4(C)[C@H](c5ccoc5)OC(=O)[C@H]5O[C@]543)[C@@]12C [nomilin] |  | 0.4 |  |  | inhibition of benzo[a]pyrene-induced forestomach neoplasia [5]: inhibited; incidence of DMBA-induced buccal pouch epidermoid carcinomas [3]: reduced the incidence
CC1(C)O[C@H]2CC(=O)OC[C@]23[C@H]2CC[C@@](C)([C@@H](O[C@@H]4O[C@H](CO)[C@@H](O)[C@H](O)[C@H]4O)c4ccoc4)[C@@]4(O[C@@H]4C(=O)O)[C@]2(C)C(=O)C[C@@H]13 [Compound (2), limonin-17-β-D-glucopyanoside] | effective | 75 | exhibited inhibition | exhibit anti-oxidant properties | water solubility (Water solubility): water-soluble
isoobacunoic-17-β-D-glucopyranoside [Compound (1)] |  |  | exhibited inhibition | exhibit anti-oxidant properties | 
nomilinic acid 17-β-D-glucopyranoside [NAG] | only LG was effective |  |  |  | 
CC1(C)OC(=O)C=C[C@]2(C)[C@H]3CC[C@@]4(C)[C@H](c5ccoc5)OC(=O)[C@H]5O[C@]54[C@]3(C)C(=O)C[C@@H]12 [obacunone] |  |  |  |  | formation of aberrant crypt foci (ACF) [4]: significantly inhibited
deacetyl nomilinic acid glucoside [Compound (3)] |  |  | exhibited inhibition | exhibit anti-oxidant properties | 
